According to BindingDB's records for PubMed 37116763 (n/a, 2023):

Target: T1, Nuclear factor erythroid 2-related factor 2 (Homo sapiens, UniProt Q16236)
T1 sequence (Q16236 whole entry): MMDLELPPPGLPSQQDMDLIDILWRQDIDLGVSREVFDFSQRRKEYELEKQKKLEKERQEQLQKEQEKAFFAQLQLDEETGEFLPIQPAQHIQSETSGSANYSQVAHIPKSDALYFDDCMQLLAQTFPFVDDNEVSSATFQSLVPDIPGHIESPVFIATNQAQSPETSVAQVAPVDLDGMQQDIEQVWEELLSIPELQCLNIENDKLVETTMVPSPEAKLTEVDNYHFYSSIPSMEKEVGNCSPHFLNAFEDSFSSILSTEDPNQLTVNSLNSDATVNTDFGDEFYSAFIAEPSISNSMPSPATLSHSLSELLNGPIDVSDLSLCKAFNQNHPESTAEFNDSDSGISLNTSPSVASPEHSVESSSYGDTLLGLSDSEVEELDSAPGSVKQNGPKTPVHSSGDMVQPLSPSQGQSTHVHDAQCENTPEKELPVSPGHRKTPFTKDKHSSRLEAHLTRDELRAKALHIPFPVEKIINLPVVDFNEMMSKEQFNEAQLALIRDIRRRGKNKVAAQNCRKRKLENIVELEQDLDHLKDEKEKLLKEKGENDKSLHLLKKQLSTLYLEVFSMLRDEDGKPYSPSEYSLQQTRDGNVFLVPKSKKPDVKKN
Assay: Activation of Nrf2 in human IMR-32-ARE-Luc cells by Bright-Glo luciferase assay

SMILES | EC50
O=C(O)CCCN[C@H]1CS(=O)(=O)C[C@@H]1S(=O)(=O)c1ccc(Cl)c(Cl)c1 | > 20 µM
O=C(O)CCCCCN[C@H]1CS(=O)(=O)C[C@@H]1S(=O)(=O)c1ccc(Cl)c(Cl)c1 | > 20 µM
CC(C)CN[C@H]1CS(=O)(=O)C[C@@H]1C(=O)Nc1ccc(Cl)c(Cl)c1 | > 20 µM
